Values joined by “and” are separate entries in the source; they are usually repeats but may differ in a detail not shown here. Equal entries are not always repeated.
What was measured:
[1] = test system: subcutaneous 9L gliosarcoma; experiment: Subcutaneous 9L gliosarcoma tumor growth delay; type: in vivo, rat (male Fischer 344); details: for Subcutaneous 9L Tumor Growth Delay, Mean Days: Table III, days to 500 mm^3 vs control (19.5 ± 0.5 days), CDDP 8 mg/kg day 7, BCNU 3 x 15, CTX or IFOS 3 x 100 mg/kg, UPHS 8 ml/kg; for Increase in tumor growth delay by prior administration of UPHS: UPHS + drug vs drug alone; for Effectiveness against subcutaneous 9L tumors: relative statement among BCNU, CTX, CDDP, IFOS
Method: The 9L gliosarcoma (9L) cells were obtained as a gift of 9L/SF gliosarcoma cells from Dr. Dennis Dean, University of California, San Francisco. These cells were maintained in culture in .varies.-MEM (Grand Island Biological Co., Grand Island, N.Y.) and supplemented with 10% fetal bovine serum (Sterile Systems, Inc., Logan, Utah) and with antibiotics. The 9L cells (4×10^4) in 10 μL of media without serum were implanted intracranially in male Fischer 344 rats (Taconic Farms, Germantown, N.Y.) weighing 200-250 gm on day 0. Each rat was anesthetized with sodium pentobarbital. A midline scalp incision was made and a hole was bored through the skull with 23 gauge needle at a point 2 mm lateral to the midline. The cell suspension was injected into the right frontal lobe at a depth of 3 mm from the dural surface. The needle was removed and the hole filled with dental cement. The scalp was sealed with a surgical clip. Two days later 9L cells (2×10^6) were implanted subcutaneously into the flank of each animal. When the tumors were approximately 100 mm^3 in volume, 7 days after tumor cell implantation, 8 ml/kg of UPHS was injected via the tail vein. After injecting the UPHS, administration of chemotherapeutic agents was initiated. […] BCNU therapy consisted of three 15 mg/kg BCNU doses administered by intraperitoneal injection days 7, 9 and 11. CTX and ifosfamide (IFOS) therapy consisted of three 100 mg/kg CTX or IFOS doses administered by intraperitoneal injection on days 7, 9 and 11. For the BCNU, CTX and IFOS therapies, UPHS was intravenously administered prior to each chemotherapeutic agent injection on days 7, 9 and 11. The IFOS was purchased from the Dana-Farber Cancer Institute. Survival of animals was monitored daily. Animals that were moribund or unable to reach food or water were killed by CO2 inhalation.
The progress of each subcutaneous tumor was measured 3 times/week until it reached a volume of 500 mm^3. Tumor growth delay was calculated as the number of days for each individual tumor to reach 500 mm^3 compared with untreated controls. Each treatment group had 4 animals and the experiment was repeated twice. Days of tumor growth delay are the mean ±SE for the treatment group compared with the control.

FSaIIC fibrosarcoma = FSaIIC fibrosarcoma tumor growth delay; type: in vivo, mouse (male C3H/FeJ mice); details: for Tumor growth delay, UPHS/Air: UPHS 0.3 ml (12 ml/kg) i.v. immediately before drug; for Tumor growth delay, UPHS/Air / Tumor growth delay, alkylating agent (alone): air breathing; for Increase in tumor growth delay by addition of UPHS: UPHS + drug (air) vs drug alone; for Effect of carbogen breathing on tumor growth delay produced by drug / Tumor growth delay, Carbogen: no UPHS; for Effect of carbogen breathing on tumor growth delay produced by drug: vs drug with air; for Tumor growth delay, Carbogen: drug + carbogen breathing 6 hours; for Tumor growth delay, alkylating agent (alone): drug alone i.p.
Method: The FsaII fibrosarcoma (FSaIIC), adapted for growth in culture, was employed. See Rice, L. et al., "The Radiosensitivity of a Murine Fibrosarcoma as Measured by Three Cell Survival Assays", Br. J. Cancer 41:240-245 (1980). 2×10^6 FSaIIC cells, prepared from a brei of several stock tumors, were implanted intramuscularly into the legs of 8- to 10-week old male C3H/FeJ mice (The Jackson Laboratory, Bar Harbor, Me.). When the tumors were approximately 100 mm^3 in volume, 0.3 ml (12 ml/kg; 1.32 gm protein/kg) of UPHS was injected via the tail vein. The UPHS solution was obtained from Biopure Corporation, Boston, Mass. and was a polymerized form of a highly purified bovine hemoglobin solution. It contained 11±2 gm/deciliter of bovine hemoglobin. […] It contained sodium (145 mM/L), chloride (140 mM/L) and potassium (4.0 mM/L) in a buffer solution (pH 7.8±0.4). […] DeVenuto, F., "Evaluation of Human and Bovine Modified-Hemoglobin Solution as Oxygen-Carrying Fluid for Blood Volume Replacement", Biomat. Art. Cells, Art. Org. 16:77-82 (1988); and Winslow, R. M., "Optimal Hematologic Variables for Oxygen Transport Including p50, Hemoglobin Cooperativity, Hematocrit, Acid-Base Atatus, and Cardiac Function", Biomat., Art. Cells and Art. Organs 16:149-172 (1988).
CTX and PAM were purchased as pure powders from Sigma Chemical Company, St. Louis, Miss. […] BCNU (Carmustine) was purchased from the Dana-Farber Cancer Institute Pharmacy.
The mice were allowed to breathe air or were placed in a circulating atmosphere of 95% O2 /5% CO2 (carbogen) for six hours and then removed to air. The progress of each tumor was measured three times weekly until it reached a volume of 500 mm^3. Tumor growth delay was calculated as the days taken by each individual tumor to reach 500 mm^3 compared to the untreated controls. […] Days of tumor growth Relay are the mean ±SE for the treatment group compared to the control.
Statistical comparisons were made with Dunn Multiple Comparisons Test.
The procedures and materials of Example I were employed except that Fluosol-DA was substituted for UPHS. Fluosol-DA was obtained from Alpha Therapeutics Corporation and is an emulsion consisting of […] (w/v) of the following perfluorocarbons: 7 parts perfluorodecalin, 3 parts per perfluorotripropyliamine; Pluronic F-68 (2.7%, w/v); yolk phospholipids (0.4% w/v) as emulsifiers; and glycerol (0.8%, w/v) as a cryoprotective agent. The annex solution (electrolyte/bicarbonate solution) furnished the preparation with physiological osmolarity.
The specific procedures employing Fluosol-DA have been described previously. See Teicher, B. A. et al., "Approaches to Defining the Mechanism of Fluosol-DA 20%/Carbogen Enhancement of Melphalan Antitumor Activity", Cancer Res. 47:513-518 (1987); Teicher, B. A. et al., "Differential Enhancement of Melphalan Cytotoxicity in Tumor and Normal t+Tissue by Fluosol-DA and Oxygen Breathing", Int. J. Cancer 36:585-589 (1985); and Teicher, B. A. et al., "Effects of Various Oxygenation Conditions on the Enhancement by Fluosol-DA of Melphalan Antitumor Activity", Cancer Res. 47:5036-5041 (1987).

[2] = PAM 10, CTX 150, CDDP 10, BCNU 15 mg/kg
[3] = UPHS + carbogen 6 h + drug vs drug alone

Structure (SMILES) | Subcutaneous 9L Tumor Growth Delay, Mean Days [1] [days] | Increase in tumor growth delay by prior administration of UPHS [1] [fold] | Effectiveness against subcutaneous 9L tumors [1] | Tumor growth delay, UPHS/Air (FSaIIC fibrosarcoma; [2]) | Increase in tumor growth delay by addition of UPHS (FSaIIC fibrosarcoma) [fold] | Effect of carbogen breathing on tumor growth delay produced by drug (FSaIIC fibrosarcoma; carbogen 6 hours) | Tumor growth delay, Carbogen (FSaIIC fibrosarcoma; [2]) [days] | Tumor growth delay, alkylating agent (alone) (FSaIIC fibrosarcoma; [2]) | Increase in tumor growth delay by combination of UPHS and carbogen (FSaIIC fibrosarcoma; mouse, in vivo) [fold] | Effect of UPHS on tumor growth delay produced by drug ([1]; UPHS prior to single dose of CDDP) | Tumor growth delay, UPHS/Carbogen (FSaIIC fibrosarcoma; UPHS 12 ml/kg i.v. + drug + carbogen breathing 6 hours, PAM 10, CTX 150, CDDP 10, BCNU 15 mg/kg) | Increase in tumor growth delay by combination of UPHS and carbogen (FSaIIC fibrosarcoma; [3]) [fold] | Tumor growth delay, with Fluosol-DA and carbogen (FSaIIC fibrosarcoma; CTX 150 mg/kg + Fluosol-DA, carbogen 6 hours) | Tumor growth delay, with Fluosol-DA and air breathing (FSaIIC fibrosarcoma; PAM 10 mg/kg + Fluosol-DA, air)
O=NN(CCCl)C(=O)NCCCl [BCNU, N,N-bis(2-chloroethyl)-N-nitrosourea] | 5.8 ± 0.5 | 1.3 | least effective against subcutaneously growing 9L tumors | 3.8 ± 0.5 days | 1.5 | increased the tumor growth delay produced by BCNU to a small degree | 3.3 ± 0.3 | 2.5 ± 0.3 days and 2.5 days | 2.3 |  |  |  |  | 
N.N.[Cl][Pt][Cl] [CDDP, cis-diaminodichloroplatinum(II)] | 9.4 ± 0.8 |  | very effective against both subcutaneous and intracranial 9L tumors | 9.6 ± 1.1 days | 1.3 | no significant effect on the tumor growth delay | 7.6 ± 0.3 | 7.4 ± 0.8 days and 7.4 days |  | no substantial effect on the tumor growth delay | 14.1 ± 1.6 days and 14.1 days | 1.9 |  | 
O=P1(N(CCCl)CCCl)NCCCO1 (stereo not drawn) [CTX, Cyclophosphamide] | 9.1 ± 0.7 | 1.5 | very effective treatments for subcutaneously growing 9L tumors | 7.4 days and 7.4 ± 0.7 days | 2.1 | small increase in the tumor growth delay | 5.0 ± 0.5 |  |  |  |  | 4.6 | about 12 days | 
N[C@@H](Cc1ccc(N(CCCl)CCCl)cc1)C(=O)O [PAM, Melphalan] |  |  |  |  | 2.2 | small increase in tumor growth delay | 4.0 ± 0.6 |  |  |  |  | 3.6 |  | about 6.5 days

Reference: patent publication US5679638A, “Method for treating a tumor with a chemotherapeutic agent” (Biopure Corporation, priority 1993, dated 1997)
